This note sets out measurements from US8334135B2, “Stem cells from adipose tissue, and differentiated cells from said cells” (Yves Saint Laurent Parfums, priority 2002, dated 2012).

Assay [1] has as its system Primo 2CA cells. Briefly: Glycerophosphate dehydrogenase (GPDH) activity during adipocyte differentiation of Primo 2CA cells. It counts as cell-based. Particulars: Primo 2CA cells T24 in the presence of human bFGF. Here is the method:
(§1) The confluent cells are incubated in a DMEM/Ham's F12 (vol/vol, 1:1) medium supplemented with 100 U/ml of penicillin, 100 μg/ml of streptomycin, 5 μg/ml of human insulin (Sigma), 10 μg/ml of human transferrin (Sigma), 1 μM of PPAR activator (for example BRL49653), 100 to 250 μM of isobutyl-methylxanthine (IBMX) and 1 μM of dexamethasone. 48 to 72 hours later, this medium is replaced by the medium described above but containing no IBMX and dexamethasone. This differentiation medium is replaced every 2-3 days for a period of 15 to 20 days corresponding to an optimum adipocyte differentiation. Firstly, the cells which are to have the GPDH activity measure, are lysed. […] The reading is made with a spectrophotometer, allowing kinetic measurements to be carried out (KONTRON Uvicon 860 thermostatted at 37° C.).

Assay [2] concerns Primo 2CS cells. Briefly: Glycerophosphate dehydrogenase (GPDH) activity during adipocyte differentiation of Primo 2CS cells. It counts as cell-based. Conditions: Primo 2CS cells T22 in the presence of human bFGF; after 13 days of differentiation (3 experiments); control 22. The procedure: as §1
Assay [3] relates to adipocytes obtained from Primo 2CA T32 cells. Briefly: Lipolysis test (glycerol liberated by adipocytes in the presence of adrenergic receptor agonists). It counts as cell-based, human. Conditions: adipocytes from Primo 2CA T32 cells (about 140 population doublings); control 5.76. The procedure:
Lipolyses were carried out on adipocytes obtained from Primo 2CA T32 cells (about 140 population doublings), with agonists specific for different β-adrenergic receptors.
This test consists of measuring the radiolabelled glycerol liberated by adipocytes in the presence of adrenergic receptor agonists. The method used is that described by Bradley D C and Kaslow H R (Anal Biochem, 1989, 180, 11-16). The glycerol liberated is phosphorylated in the presence of glycerokinase and ATP and ATP labeled with ^32P in the […]. The residual ATP is then hydrolyzed in an acid medium at 90° C. and precipitated with ammonium molybdate and triethylamine. The radioactivity incorporated in the form of glycerophosphate labelled with ^32P is estimated by counting in a β counter and the values are expressed in pmol using a calibration curve.
Lipolyses were carried out on Primo 2CA T32 cells with specific agonists for the different β adrenergic receptors, namely: • Isoproterenol: β1, β2 adrenergic • Dobutamine: β1 adrenergic • Terbutaline: β2 adrenergic • CL316243 β3 adrenergic: […]

In assay [4] the test system is stem cells of the invention. Briefly: Effect of Leukemia Inhibitory Factor on morphology and proliferation of the stem cells. It counts as cell-based, human. Particulars: LIF 10 ng/ml. The procedure:
For this enrichment step, different culture media were tested.

Assay [5] relates to CA population. Briefly: Effect of bFGF on proliferation of the quiescent CA population. It counts as cell-based, human. Here is the method:
The addition of growth factors such as bFGF incorporated, for example, at a concentration of about 3 to 20 ng/ml of medium, in particular 5 to 10 ng/ml, not only halves the population doubling time (for example the population doubling time without bFGF is about 72 hours, while it is about 36 hours with bFGF), but also allows the population to reach confluence. Without growth factors, proliferation of a quiescent population of stem cells of the invention can be provoked by trypsination and dilution, but proliferation will spontaneously stop at about 70% confluence. Since confluence is indispensable in vitro for initiating the differentiation of many cell types, the use of growth factors such as bFGF must be envisaged for in vitro production of this type of differentiated cell.
These observations confirm the quiescent state of the CA population and the state of senescence in the CS population.
After establishing a population of quiescent CA cells, human bFGF (basic Fibroblast Growth Factor) is added to the culture medium described above in a concentration of 5 ng/ml of medium.

Assay [6] has as its system CS population. Briefly: Effect of bFGF on proliferation of the CS population at late stages. It counts as cell-based, human. Conditions: bFGF 5 ng/ml, after 50 population doublings.

“Also recorded” adds a separate entry of the source.

As to `CN(CCOc1ccc(CC2SC(=O)NC2=O)cc1)c1ccccn1` (stereo not shown) [BRL49653], the GPDH activity is recorded as 290 nmol/min/mg of protein in assay [1] (after 11 days of differentiation (2 experiments), control 77); 390 nmol/min/mg of protein in assay [1] (after 16 days of differentiation (3 experiments), control 20); 30 nmol/min/mg of protein in assay [2].

Turning to `C[C@H](Cc1ccc2c(c1)OC(C(=O)[O-])(C(=O)[O-])O2)NC[C@H](O)c1cccc(Cl)c1.[Na+].[Na+]` [CL316243], the lipolysis rate in assay [3] is 17.1 nmol/h/mg of protein.

Turning to `CC(CCc1ccc(O)cc1)NCCc1ccc(O)c(O)c1` (stereo not shown) [Dobutamine], the lipolysis rate in assay [3] is listed as 60.1 nmol/h/mg of protein.

Consider `CC(C)(C)NCC(O)c1cc(O)cc(O)c1` (stereo not shown) [Terbutaline], for which the lipolysis rate in assay [3] is given as 93.78 nmol/h/mg of protein.

As to LIF: Leukemia Inhibitory Factor, the “effect on morphology or proliferation of the cells” value in assay [4] was “no change in the morphology or proliferation; also recorded: no changes in morphology or proliferation”.

Turning to “bFGF: human basic Fibroblast Growth Factor”, in assay [5] (bFGF 5 ng/ml, late stages, after 50 population doublings), the “effect on proliferation of CA population” value was “effectively respond”. Further, in assay [5] (with bFGF (about 3 to 20 ng/ml), about 72 hours without bFGF), the population doubling time result was “about 36 hours”. The “effect on proliferation of CS population” value in assay [6] is recorded as “no significant effect; also recorded: practically no effect”.
